First: COc1cc2c(cc1-c1cccnc1)-c1c(Cl)c3c(n1CC2)C(=O)N(C(C)(C)C)CCCC3
Second: COc1ccc(C2CCN(C)CC2)cc1Nc1ncc2ccc(-c3ccccc3N(C)S(C)(=O)=O)n2n1
The melting point of the first is higher: 190 to 192 °C for the first, 93 to 99 °C for the second.

Compared with `COc1cc2c(cc1C(F)(F)F)N(C(=O)Nc1cc(F)cc(I)c1)CC2`, `COc1cc(C(C)=O)ccc1OCCN1CCC(c2noc3cc(F)ccc23)CC1` is lower in melting point: 221 to 224 °C for the first, 132 to 134 °C for the second.

First: CC(C)Nc1cccnc1N1CCN(C(=O)c2ccc(C(=O)N(C(C)C)C(C)C)cc2)CC1
Second: CC(C)(C)OC(=O)N1CCN(c2cccc3c(Sc4ccccc4)c[nH]c23)CC1
The melting point of the first is lower: 152 to 153 °C for the first, 165 to 166 °C for the second.

Compared with `CC(=O)OC(c1nc2c(C(F)(F)F)cccc2c(O)c1C(=O)Nc1nccs1)C(C)C` (stereo not drawn), `CCOC(=O)[C@@H](NC(=O)c1cc(-c2ncc(C(F)(F)F)cc2Cl)ccc1Cl)C(C)C` is lower in melting point: 242 °C for the first, 90 to 92 °C for the second.

First: NS(=O)(=O)c1cccc(C=NO)c1
Second: COC(=O)C(=C/c1ccccc1)/C(=C\c1cc(OC)c(OC)c(OC)c1)C(N)=O
The melting point of the first is lower: 107 to 108 °C for the first, 121 to 122 °C for the second.

Compared with `CCCCOCCOC(=O)C1=C(C)NN=C(CC)C1c1cccc([N+](=O)[O-])c1` (stereo not drawn), `CCCCOc1c(CNC(=O)OC(C)(C)C)n(CC2CC2)c(=O)c2ccc(C(=O)O)cc12` is higher in melting point: 122 °C for the first, 197 to 198 °C for the second.

First: COc1ccccc1N1CCN(CCCCNc2cc(Cl)nnc2Cl)CC1
Second: Nc1ccccc1NCCCN1CCC(n2c(=O)[nH]c3cc(Cl)ccc32)CC1
The melting point of the first is lower: 155 to 170 °C for the first, 196 °C for the second.

First: COc1ccccc1-c1nc(-c2ccccc2)c2ncc(Cl)cc2n1
Second: Cc1c(-c2ccccc2)[nH]c2ccc(Cl)cc2c1=O
The melting point of the first is lower: 116 to 117 °C for the first, 296 to 302 °C for the second.

First: CC(C)(C)OC(=O)NCCc1ccc(OCCC2Oc3ccccc3N(Cc3cccc(Cl)c3)C2=O)cc1 (stereo not drawn)
Second: COc1ccc(CN2C(=O)C(NC(=O)Nc3ccccc3)C(=O)N(CCC(C)C)c3ccccc32)cc1 (stereo not drawn)
The melting point of the first is lower: 91 to 92 °C for the first, 206 to 208 °C for the second.

Compared with `O=C(O)C=Cc1ccc(-c2cnc(CSCCOc3ccccc3)o2)cc1`, `CCOc1nn(CCc2ccc(OCc3nc(-c4ccccc4)oc3C)cc2)cc1CCC(=O)O` is lower in melting point: 150 to 153 °C for the first, 110 to 111 °C for the second.

Compared with `CC(C)CC(=O)Nc1cccc(-c2ccnc3c(-c4cccc(N)c4)cnn23)c1`, `CC(=O)c1cccc(Oc2ncccc2NC(=O)Cc2ccc(C(C)(C)O)cc2)c1` is lower in melting point: 173 to 175 °C for the first, 85 to 87 °C for the second.

Compared with `Cc1ccc(S(=O)(=O)NC(=O)N2C(=O)C(C)N2C(c2ccccc2)c2ccccc2)cc1` (stereo not drawn), `COc1ccc(CCOC(=O)NC(=O)C(c2ccccc2)c2ccccc2)cc1OC` is lower in melting point: 155 to 159 °C for the first, 144 °C for the second.

First: CS(=O)c1nc(-c2ccccc2)cs1 (stereo not drawn)
Second: CCOC(=O)C(Sc1nc2cc(Cl)ccc2s1)c1ccccc1 (stereo not drawn)
The melting point of the first is higher: 104 to 105 °C for the first, 62 to 64 °C for the second.

First: CCCn1c(=O)c2[nH]c(C3CCCC3)nc2n(CCc2ccc(NC(=O)CC)cc2)c1=O
Second: O=C1NN=C(c2ccc(C3CCCCC3)cc2)C2CC12 (stereo not drawn)
The melting point of the first is higher: greater than 270 °C for the first, 211 to 212 °C for the second.

First: NNc1c(F)c(F)c(C(F)(F)F)c(F)c1Cl
Second: N#Cc1nn(-c2c(Cl)cc(C(F)(F)F)cc2Cl)c(N)c1C(=O)C(F)(F)F
The melting point of the first is lower: 91 to 92 °C for the first, 226 °C for the second.

First: N=C(N)c1ccc(C(=O)NCCCC(=O)NCCC(=O)O)cc1
Second: O=C(O)CCC(=O)c1ccc(-c2ccc(Cl)cc2F)cc1
The melting point of the first is higher: greater than 250 °C for the first, 127 to 129 °C for the second.

First: COc1ccc(-n2nnnc2C(F)(F)F)c(OC)c1CBr
Second: COc1cccc(CN2CCN(C(=S)SC)CC2)c1OC
The melting point of the first is lower: 89.5 to 90 °C for the first, 110 to 111 °C for the second.

First: O=C(O)c1ccccc1C(=O)NCc1ccccn1
Second: CCc1cn2c(=O)c(C(=O)O)cnc2c2ccccc12
The melting point of the first is lower: 140 to 142 °C for the first, 221 to 223 °C for the second.

First: CC(C)Sc1c(C(=O)O)oc(Br)c1Br
Second: COC(=O)[C@H](O)[C@@H](O)C(C)C
The melting point of the first is higher: 130 to 131 °C for the first, 32 to 34 °C for the second.

First: Cc1cc(O)c(Oc2ccccc2C#N)cc1[N+](=O)[O-]
Second: O=C(NCc1c[nH]c(-c2cc3nc(C(=O)O)c(=O)[nH]c3cc2[N+](=O)[O-])n1)Nc1ccccc1F
The melting point of the first is lower: 157 to 159 °C for the first, 300 °C for the second.

First: CC(C)c1c(C=O)c(-c2ccc(F)cc2)c2ccccn12
Second: Cc1c(-c2ccc3c(c2)NC(=O)CO3)nc2ccccn12
The melting point of the first is lower: 94 to 95 °C for the first, 280 to 282 °C for the second.

First: OC1CSC(Oc2cccnc2Cl)C(O)C1O (stereo not drawn)
Second: OC1CSC(Oc2cc(-c3ccc(F)nc3)cnc2F)C(O)C1O (stereo not drawn)
The melting point of the first is lower: 153 °C for the first, 158 to 159 °C for the second.

First: CCN1C=C(C(=O)O)C(=O)CC1c1ccc2c(c1)OCO2 (stereo not drawn)
Second: N#CC(=Cc1ccc2c(c1)OCCO2)c1cccnc1
The melting point of the first is higher: 173 to 175 °C for the first, 158 to 159 °C for the second.

`Cc1[nH]c(=O)[nH]c(=O)c1N1CCN(Cc2ccccc2)CC1` and `CN1CCC(Sc2ccc3[nH]c(=O)[nH]c(=O)c3c2)CC1` cannot be ordered by melting point: 263 °C for the first, greater than 260 °C for the second.

First: CCOC(=O)NNC(=O)CC(F)=C(F)F
Second: COC(=O)[C@H](Cc1c[nH]cn1)NC(=O)[C@H](CCC(N)=O)NC(=O)OCc1ccccc1
The melting point of the first is lower: 110 °C for the first, 186 to 188 °C for the second.

Compared with `CCOC(=O)c1ccc(CNC(=O)c2csc3nc(C(=O)OCC)[nH]c(=O)c23)cc1`, `CCOC(=O)c1c(C(C)(C)O)nc(SC)n1Cc1ccc(-c2ccccc2-c2nnn[nH]2)cc1` is lower in melting point: 227 to 228 °C for the first, 125 to 127 °C for the second.

First: CC(C)(C)CC(C)(C)c1cc(-n2nc3ccc(S(=O)(=O)c4ccccc4)cc3n2)c(O)c(C(C)(C)c2ccccc2)c1
Second: Cc1cccc2c1nc(-c1c(F)cccc1F)n2S(=O)(=O)c1ccccc1
The melting point of the first is higher: 170 to 171 °C for the first, 134 to 135 °C for the second.

First: O=c1c(Br)cc(-c2ccncn2)cn1Cc1ccccc1
Second: CN(Cc1ccc(-c2ccc(OCC#N)c(Br)c2)cc1)C(=O)c1cn(C)c2ccccc12
The melting point of the first is lower: 189 to 192 °C for the first, 202 to 206 °C for the second.

First: Cc1cccc(C(=O)Nc2ccc(-c3ccc(-c4ccccc4Cl)n3Cc3cccc(N)n3)cc2)c1
Second: CC(=O)ON=C1CCCN(C(=O)c2ccc(NC(=O)c3ccccc3Cl)cc2)c2ccccc21
The melting point of the first is lower: 108 to 118 °C for the first, 142 to 144 °C for the second.

First: CCC1(CC)c2ccccc2C(CC)(CC)N1OC(COC(C)(C)C)c1ccccc1 (stereo not drawn)
Second: c1ccc(C(Nn2cncn2)c2ccccc2)cc1
The melting point of the first is lower: 85 to 86 °C for the first, 142 to 145 °C for the second.

First: CC(C)=CCN1CCOC(CN2c3ccccc3C=Cc3ccccc32)C1 (stereo not drawn)
Second: O=C1NC(=O)C(c2cn3c4c(cccc24)CC3)C1c1c[nH]c2ccccc12 (stereo not drawn)
The melting point of the first is lower: 99 to 100 °C for the first, 144 to 148 °C for the second.

Compared with `CCCC1(CCC)c2ccccc2-c2cc(NC(=O)c3cc4oc5ccccc5c4cc3OC)c(O)cc21`, `O=C(O)Cc1ccc(NC(=O)c2ccccc2SSc2ccccc2C(=O)Nc2ccc(CC(=O)O)cc2)cc1` is higher in melting point: 252 to 255 °C for the first, 257 to 260 °C for the second.

First: C#CCOC(=O)Nc1ccc(C2=NNC(=O)CC2C)cc1 (stereo not drawn)
Second: CN1C(=O)C(C(=O)Nc2ccc(Oc3nc(C(F)(F)F)nn3C)cc2)C(=O)N(C)C1=O
The melting point of the first is higher: 204 to 205 °C for the first, 202 to 204 °C for the second.

Compared with `CC(=O)n1cc(Cl)c(-c2cccc3c2OC(F)(F)O3)n1`, `COC(=O)[C@H](CO)NC(=O)c1ncn2c1CN(C)C(=O)c1ccccc1-2` is higher in melting point: 131 °C for the first, 180 to 181 °C for the second.

Compared with `CN(c1cccc2cc(C3=NCC(CN4CCS(=O)(=O)CC4)S3)[nH]c12)S(=O)(=O)c1ccccn1` (stereo not drawn), `Nc1ccc(C2=NNC(c3ccccn3)=NN2)nc1` is lower in melting point: 188 to 189 °C for the first, 158 to 160 °C for the second.

First: Cn1c(=O)c2c(ncn2C(=O)CCC(=O)n2cnc3c2c(=O)n(C)c(=O)n3C)n(C)c1=O
Second: CC(C)Cn1c(CNC(=O)OC(C)(C)C)c(-c2ccc(F)cc2)c2cc(OCC(N)=O)ccc2c1=O
The melting point of the first is higher: 266 °C for the first, 218 to 219 °C for the second.

First: COc1ccc(COc2ccc(COc3ccc4c(c3)CCC(CN(C)C)C4)cc2)cc1 (stereo not drawn)
Second: CS(=O)(=O)c1ccc(-c2sc(COc3ccc(Cl)cc3)nc2-c2ccc(F)cc2)cc1
The melting point of the first is lower: 106 to 111 °C for the first, 140 to 143 °C for the second.

Compared with `CCOC(=O)c1nc2cc(N)ccn2n1`, `CCCn1c(=O)c(N)nc2ccccc21` is higher in melting point: 150 to 171 °C for the first, 191 to 192 °C for the second.

Compared with `CCOC(=O)Cn1c(-c2ccc(OC)cc2)nc2cccnc21`, `COc1cc(OC)c2c(=O)[nH]c(-c3cccc(-c4ccc(S(C)=O)cc4)n3)nc2c1` (stereo not drawn) is higher in melting point: 107 to 108 °C for the first, 281 to 282 °C for the second.

Compared with `CCC(CC)Cn1cc(C(=O)C(=O)O)c2cc(-c3ccc(OC(F)(F)F)cc3)ccc21`, `COc1cccc2c1c(C)c(CCC(=O)O)n2Cc1ccc(Cl)cc1` is higher in melting point: 98 to 99 °C for the first, 145 °C for the second.

Compared with `CSC(C(=O)c1nsc(NC=O)n1)S(C)=O` (stereo not drawn), `CNC(=O)c1cnn(C(C)(C)C)c1C#N` is higher in melting point: 130 to 132 °C for the first, 162 to 165 °C for the second.

First: NC(=O)COCC(N)=S
Second: CC(C)(C)OC(=O)NCCNC(=O)c1noc(N)c1-c1ccccc1
The melting point of the first is higher: 164 to 168 °C for the first, 144 °C for the second.

First: COC(=O)c1nc(C2CC2)nc(N)c1Cl
Second: CC(NC(=O)c1cc(Cl)ccc1NC(=O)c1cc(Br)nn1-c1ncccc1Cl)C1CC1 (stereo not drawn)
The melting point of the first is lower: 147 to 148 °C for the first, 231 to 233 °C for the second.

First: FC(F)(F)c1cccc(Nc2nc(NCc3ccco3)nc(-c3ccccc3)n2)c1
Second: Cc1c(SCCCSc2nc3ccccc3[nH]2)ccnc1CSc1ccncc1
The melting point of the first is higher: 133 to 134 °C for the first, 128 to 129 °C for the second.

Compared with `CC(=O)Oc1cc2c(s1)CCN(C(C(=O)C1CC1)c1ccccc1F)C2` (stereo not drawn), `O=C(O)c1cn(C2CC2)c2c(CO)c(N3CCNCC3)c(F)cc2c1=O` is higher in melting point: 120 to 122 °C for the first, 149 to 152 °C for the second.

First: COc1ccc([N+](=O)[O-])cc1N1CCN(C(=O)OC(C)(C)C)CC1
Second: CNS(=O)(=O)c1cc2c(c(C(=O)NC3CCN(C4CCCCC4)C3)c1)OCCO2 (stereo not drawn)
The melting point of the first is lower: 136 to 137 °C for the first, 160 to 161 °C for the second.

Compared with `CSc1cc2cc(C)ccc2cc1C=O`, `Cc1ccc(-c2nc(-c3cnccc3C)sc2F)cc1` is lower in melting point: 117 to 118 °C for the first, 96 °C for the second.

Compared with `CC(=NNc1nc(Cl)c(-c2c(F)cc(F)cc2F)c(NC(C)C(F)(F)F)n1)C(F)(F)F` (stereo not drawn), `Nc1ccc(Br)c(-c2nc3ncccc3o2)c1` is lower in melting point: 205 to 207 °C for the first, 172 to 174 °C for the second.

Compared with `CCCC1CCC(O)CC1` (stereo not drawn), `CCOP1(=S)OCc2cc(C)cnc2O1` (stereo not drawn) is lower in melting point: 109 °C for the first, 54 to 55 °C for the second.

Source: a melting point compilation (Tetko et al.; mined from patent text by program, amines drawn as free bases though some values may be those of a salt)
